# Source: US5183821A, “Method for treating leukemias using N-(2-dimethylaminoethyl)-3-amino-1,8-naphthalimide for treating leukemias and solid tumors” (priority 1991, dated 1993)
# “And” between values parts separate entries of the source, which are not always exact repeats. Equal entries are not always repeated. “Also recorded” adds a separate entry of the source.
# Legend:
# Colon 38 [1] = assay: Experiment 14: Colon 38 s.c., saline with Tween-80, female; type: in vivo, Mouse B6 D2 F1 (BDF1)
# Excerpt: (§1) Host: Mouse B6 D2 F1 (BDF1)
# (§2) Inoculum Site: Subcutaneous
# (§3) Vehicle: Saline with Tween-80
# Treatment schedule (relative to tumor inoculation day): Days 2 and 9
# (§4) Day of evaluation (relative to tumor inoculation day): 20
# (§5) Parameter: Median tumor weight (MTW) estimated from tumor diameter
# (§6) NCI minimal activity criteria: Percent T/C≤42
# (§7) Percent T/C: Ratio of test (T) evaluation to control (C) evaluation expressed as a percentage
# beagle dogs [2] = assay: Five daily dose dog toxicity study; type: in vivo
# Experimental: (§8) Preclinical toxicity studies of BIDA were completed in CD2F1 Mice, Fischer 344 rats and beagle dogs (4). The animals were injected IV with a single bolus or daily for five days.
# (§9) A preclinical toxicology study of benzisoquinolinedione (NSC-308847) was done at Springborn Institute for Bioresearch, Inc. using CD2 F1 mice, Fischer 344 rats and beagle dogs. Animals were injected intravenously on a single dose (X1) or five daily dose (X5) regimen. Bulk drug was titrated with 0.5N HCl to form a salt solution of benzisoquinolinedione at a pH of 5.0-6.5. Sterile 0.9% saline was used for diluting the dosing solutions and was used for the vehicle control animals.
# (§10) The following summarizes the major organ toxicities resulting from IV administration of benzisoquinolinedione to dogs.
# M5076 ovarian carcinoma = assay: Experiment 21: M5076 i.p., 10^6 cells, acid diluted with saline, female; type: in vivo, Mouse
# Excerpt: Tumor: M5076 ovarian carcinoma
# Inoculum Site: Intraperitoneal
# Vehicle: Acid diluted with saline
# Treatment schedule (relative to tumor inoculation day): every 4 days for 4 times
# Day of evaluation (relative to tumor inoculation day): 60
# Parameter: Mean survival time (MST) in days
# NCI minimal activity criteria: Percent T/C≥125.
# Percent T/C: Ratio of test (T) evaluation to control (C) evaluation expressed as a percentage.
# beagle dogs [3] = assay: Single dose dog toxicity study; type: in vivo; details: for Mortality / lethality: single; for toxicity summary, dogs: single dose i.v.
# Experimental: as §8, §9, §10
# Colon 38 [4] = assay: Experiment 12 (second): Colon 38 s.c., saline with Tween-80, female; type: in vivo, Mouse B6 D2 F1 (BDF1)
# Excerpt: as §1, §2, §3
# Treatment schedule (relative to tumor inoculation day): days 2 and 9
# as §4, §5, §6, §7
# [5] = 18.4 mg/kg, three dogs, days 2, 3 and/or 4
structure (smiles),measurement,setting,value
"CN(C)CCN1C(=O)c2cccc3cc(N)cc(c23)C1=O [Example 9, 1H-Benz[de]isoquinoline-1,3(2H)-dione, 5-amino-2-[2-(dimethylamino)ethyl]]",Percent T/C,Colon 38 [1]; 2.00 mg/kg i.p.,111%
same,Median tumor weight (MTW),Colon 38 [1]; 4.00 mg/kg i.p.,1872
same,Percent T/C,Colon 38 [1]; 4.00 mg/kg i.p.,97%
same,Median tumor weight (MTW),Colon 38 [1]; 8.00 mg/kg i.p.,1687
same,Percent T/C,Colon 38 [1]; 8.00 mg/kg i.p.,87%
same,Median tumor weight (MTW),Colon 38 [1]; 16.00 mg/kg i.p.,2748
same,Percent T/C,Colon 38 [1]; 16.00 mg/kg i.p.,142%
same,Median tumor weight (MTW),Colon 38 [1]; 32.00 mg/kg i.p.,1013
same,Percent T/C,Colon 38 [1]; 32.00 mg/kg i.p.,52%
same,Median tumor weight (MTW),Colon 38 [1]; 64.00 mg/kg i.p.,1132
same,Percent T/C,Colon 38 [1]; 64.00 mg/kg i.p.,58%
same,drug-related toxicities,beagle dogs [2]; 0.38 mg/kg/day,No drug-related toxicities were found
same,Mortality / lethality,beagle dogs [2]; 0.38 mg/kg/day (1/10MELD10),0/4
same,drug-related toxicities,beagle dogs [2]; 3.8 mg/kg/day,No drug-related toxicities were found
same,Mortality / lethality,beagle dogs [2]; 3.8 mg/kg/day (MELD10),0/4
same,gross or microscopic lesions,beagle dogs [2]; 11.4 mg/kg/day,No drug-related gross or microscopic lesions were found
same,Mortality / lethality,"beagle dogs [2]; 11.4 mg/kg/day (3XMELD10), listed as BIDA",Neither the single injection of 2×MELD10 or the daily×5 injection of the 3×MELD10 caused lethality
same,Mortality / lethality,"beagle dogs [2]; 11.4 mg/kg/day (3XMELD10), listed as benzisoquinolinedione",no deaths and 0/4
same,leukopenia (leukocyte count),"beagle dogs [2]; 11.4 mg/kg/day, all four dogs",3.5-6.6 ×10^3 /cmm
same,Nervous system signs,"beagle dogs [2]; 11.4 mg/kg/day, days 2 and/or 3",Three of four dogs showed signs indicating nervous system toxicity
same,BUN,"beagle dogs [2]; 11.4 mg/kg/day, one dog, day 8",27 mg/dL
same,"decrease in hemoglobin, hematocrit and red blood cells below pretest values","beagle dogs [2]; 11.4 mg/kg/day, two dogs, day 4 or 8",15-24%
same,"toxicity summary, dogs","beagle dogs [2]; five daily doses i.v., listed as benzisoquinolinedione","reversible toxicity to the hematopoietic system, kidney and liver; also recorded: Signs indicative of pain and/or neurotoxicity; also recorded: No drug-related gross or microscopic lesions"
same,Mean survival time (MST),M5076 ovarian carcinoma; 4.50 mg/kg i.p.,"29,0 days"
same,Percent T/C,M5076 ovarian carcinoma; 4.50 mg/kg i.p.,109%
same,Mean survival time (MST),"M5076 ovarian carcinoma; 9,00 mg/kg i.p.","28,7 days"
same,Percent T/C,"M5076 ovarian carcinoma; 9,00 mg/kg i.p.",107%
same,Mean survival time (MST),"M5076 ovarian carcinoma; 18,00 mg/kg i.p.","30,8 days"
same,Percent T/C,"M5076 ovarian carcinoma; 18,00 mg/kg i.p.",115%
same,Mean survival time (MST),"M5076 ovarian carcinoma; 36,00 mg/kg i.p.","37,0 days"
same,Percent T/C,"M5076 ovarian carcinoma; 36,00 mg/kg i.p.",139%
same,Mean survival time (MST),"M5076 ovarian carcinoma; 72,00 mg/kg i.p.",Toxic.
same,gross or microscopic lesions,beagle dogs [3]; 0.92 mg/kg,No drug-related gross or microscopic lesions were found
same,Mortality / lethality,beagle dogs [3]; 0.92 mg/kg (1/10MELD10),0/4
same,SGPT,"beagle dogs [3]; 0.92 mg/kg, days 2 and 4",27-40 I.U./L
same,BUN,"beagle dogs [3]; 0.92 mg/kg, one dog, day 4",26 mg/dL
same,Creatinine,"beagle dogs [3]; 0.92 mg/kg, one dog, day 4",1.29 mg/dL
same,gross or microscopic lesions,beagle dogs [3]; 9.2 mg/kg,No drug-related gross or microscopic lesions were found
same,Mortality / lethality,beagle dogs [3]; 9.2 mg/kg (MELD10),0/4
same,Creatinine,"beagle dogs [3]; 9.2 mg/kg, day 4",1.31 mg/dL
same,BUN,"beagle dogs [3]; 9.2 mg/kg, one dog, days 2 and 4",22 to 23 mg/dL
same,SGPT,"beagle dogs [3]; 9.2 mg/kg, three dogs, days 2 and/or 4",32-43 I.U./L
same,Nervous system signs,beagle dogs [3]; 18.4 mg/kg,"vocalizations, struggling against restraint, excessive salivation, hyperextension of all limbs and/or labored breathing"
same,Mortality / lethality,"beagle dogs [3]; 18.4 mg/kg (2XMELD10), listed as BIDA",Neither the single injection of 2×MELD10 or the daily×5 injection of the 3×MELD10 caused lethality
same,Mortality / lethality,"beagle dogs [3]; 18.4 mg/kg (2XMELD10), listed as benzisoquinolinedione",no deaths and 0/4
same,BUN,"beagle dogs [3]; 18.4 mg/kg, all dogs, day 2",23 to 32 mg/dL
same,leukopenia (leukocyte count),"beagle dogs [3]; 18.4 mg/kg, days 3, 8 or 4",3.8-5.4 ×10^3 /cmm
same,gross or microscopic lesions,"beagle dogs [3]; 18.4 mg/kg, listed as benzisoquinolinedione",No gross or microscopic lesions were seen; also recorded: No drug-related gross or microscopic lesions were found
same,SGOT,beagle dogs [3]; [5],43-70 I.U./L
same,SGPT,beagle dogs [3]; [5],40-57 I.U./L
same,BUN,"beagle dogs [3]; 18.4 mg/kg, two long-term dogs, days 22 and 29 or 28",23 to 29 mg/dL
same,"toxicity summary, dogs",beagle dogs [3]; listed as BIDA,"Hematopoletic, renal and hepatic toxicity; also recorded: Signs indicating pain and/or neurotoxicity"
same,"toxicity summary, dogs",beagle dogs [3]; listed as benzisoquinolinedione,"reversible toxicity to the hematopoietic system, kidney and liver; also recorded: Signs indicative of pain and/or neurotoxicity; also recorded: No drug-related gross or microscopic lesions"
same,Median tumor weight (MTW),Colon 38 [4]; 8.00 mg/kg i.p.,1100
same,Percent T/C,Colon 38 [4]; 8.00 mg/kg i.p.,88%
same,Median tumor weight (MTW),Colon 38 [4]; 16.00 mg/kg i.p.,1256
same,Percent T/C,Colon 38 [4]; 16.00 mg/kg i.p.,100%
same,Median tumor weight (MTW),Colon 38 [4]; 32.00 mg/kg i.p.,1005
same,Percent T/C,Colon 38 [4]; 32.00 mg/kg i.p.,80%
same,Median tumor weight (MTW),Colon 38 [4]; 64.00 mg/kg i.p.,699
same,Percent T/C,Colon 38 [4]; 64.00 mg/kg i.p.,55%
same,Median tumor weight (MTW),Colon 38 [4]; 128.00 mg/kg i.p.,Deaths before evaluation
